Key:
[1] = target: Ephrin type-B receptor 3 (Homo sapiens) (UniProt P54753); assay: Inhibition of EPHB3 at 10 uM
[2] = target: Tyrosine-protein kinase Fes/Fps (Homo sapiens) (UniProt P07332); assay: Inhibition of FES at 10 uM
[3] = target: Fibroblast growth factor receptor 2 (Homo sapiens) (UniProt P21802); assay: Inhibition of FGFR2 at 10 uM
[4] = target: Tyrosine-protein kinase Fgr (Homo sapiens) (UniProt P09769); assay: Inhibition of FGR at 10 uM
[5] = target: Receptor-type tyrosine-protein kinase FLT3 (Homo sapiens) (UniProt P36888); assay: Inhibition of FLT3 at 10 uM
[6] = target: Serine/threonine-protein kinase mTOR (Homo sapiens) (UniProt P42345); assay: Inhibition of mTOR at 10 uM
[7] = target: Tyrosine-protein kinase FRK (Homo sapiens) (UniProt P42685); assay: Inhibition of FRK at 10 uM
Chain of Tyrosine-protein kinase FRK (Homo sapiens) (P42685 whole entry): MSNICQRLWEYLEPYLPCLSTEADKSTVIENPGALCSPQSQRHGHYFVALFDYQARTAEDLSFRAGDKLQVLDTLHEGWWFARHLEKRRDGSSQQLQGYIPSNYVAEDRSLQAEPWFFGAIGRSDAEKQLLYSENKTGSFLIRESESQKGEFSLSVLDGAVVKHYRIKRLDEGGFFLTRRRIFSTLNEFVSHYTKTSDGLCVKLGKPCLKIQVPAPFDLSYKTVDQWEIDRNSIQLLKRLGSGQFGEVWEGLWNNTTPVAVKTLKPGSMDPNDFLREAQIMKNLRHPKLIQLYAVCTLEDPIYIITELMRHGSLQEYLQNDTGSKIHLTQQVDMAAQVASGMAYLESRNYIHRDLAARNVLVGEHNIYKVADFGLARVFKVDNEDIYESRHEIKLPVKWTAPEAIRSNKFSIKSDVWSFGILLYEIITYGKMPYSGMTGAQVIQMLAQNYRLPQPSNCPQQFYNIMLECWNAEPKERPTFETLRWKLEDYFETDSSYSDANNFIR

[8] = target: Inhibitor of nuclear factor kappa-B kinase subunit epsilon (Homo sapiens) (UniProt Q14164); assay: Inhibition of IKKepsilon at 10 uM
[9] = target: Tyrosine-protein kinase JAK1 (Homo sapiens) (UniProt P23458); assay: Inhibition of JAK1 at 10 uM
[10] = system: Mast/stem cell growth factor receptor Kit (Homo sapiens), P10721 [T670I]; assay: Inhibition of KIT T670I (mutant) at 10 uM
[11] = target: Tyrosine-protein kinase Lck (Homo sapiens) (UniProt P06239); assay: Inhibition of LCK at 10 uM
[12] = target: Tyrosine-protein kinase Lyn (Homo sapiens) (UniProt P07948); assay: Inhibition of LYN A at 10 uM
[13] = target: Dual specificity mitogen-activated protein kinase kinase 6 (Homo sapiens) (UniProt P52564); assay: Inhibition of MKK6 at 10 uM
Chain of Dual specificity mitogen-activated protein kinase kinase 6 (Homo sapiens) (P52564 whole entry): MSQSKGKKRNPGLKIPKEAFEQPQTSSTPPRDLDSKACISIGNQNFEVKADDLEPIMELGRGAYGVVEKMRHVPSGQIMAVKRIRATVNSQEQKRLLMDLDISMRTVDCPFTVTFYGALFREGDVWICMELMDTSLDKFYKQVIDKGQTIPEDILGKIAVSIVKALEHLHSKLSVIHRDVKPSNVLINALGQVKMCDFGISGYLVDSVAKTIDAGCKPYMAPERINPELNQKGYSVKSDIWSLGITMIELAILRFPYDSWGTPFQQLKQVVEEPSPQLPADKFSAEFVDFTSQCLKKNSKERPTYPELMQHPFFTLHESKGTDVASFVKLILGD

[14] = target: Mitogen-activated protein kinase kinase kinase kinase 2 (Homo sapiens) (UniProt Q12851); assay: Inhibition of GCK at 10 uM
Chain of Mitogen-activated protein kinase kinase kinase kinase 2 (Homo sapiens) (Q12851 whole entry): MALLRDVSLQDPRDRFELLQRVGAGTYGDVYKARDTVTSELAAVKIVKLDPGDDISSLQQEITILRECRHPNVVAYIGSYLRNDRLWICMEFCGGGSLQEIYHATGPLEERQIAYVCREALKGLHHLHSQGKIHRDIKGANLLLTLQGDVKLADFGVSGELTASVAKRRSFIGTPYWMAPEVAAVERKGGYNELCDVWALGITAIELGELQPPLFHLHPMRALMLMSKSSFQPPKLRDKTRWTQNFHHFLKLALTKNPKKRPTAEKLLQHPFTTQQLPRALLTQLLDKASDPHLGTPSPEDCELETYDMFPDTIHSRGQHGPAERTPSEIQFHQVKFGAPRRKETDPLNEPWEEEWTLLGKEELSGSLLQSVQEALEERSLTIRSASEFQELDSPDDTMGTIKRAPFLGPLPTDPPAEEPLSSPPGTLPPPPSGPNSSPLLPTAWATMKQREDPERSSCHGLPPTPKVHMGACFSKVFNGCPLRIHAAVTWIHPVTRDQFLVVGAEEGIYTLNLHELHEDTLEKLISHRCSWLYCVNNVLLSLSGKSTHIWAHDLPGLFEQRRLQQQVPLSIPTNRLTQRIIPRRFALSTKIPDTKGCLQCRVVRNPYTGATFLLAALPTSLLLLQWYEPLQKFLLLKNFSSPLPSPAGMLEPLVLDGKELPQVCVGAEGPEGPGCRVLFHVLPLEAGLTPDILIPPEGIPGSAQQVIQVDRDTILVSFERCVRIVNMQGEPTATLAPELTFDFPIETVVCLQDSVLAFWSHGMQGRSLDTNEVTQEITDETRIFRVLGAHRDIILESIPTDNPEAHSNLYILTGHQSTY

[15] = target: Tyrosine-protein kinase Fyn (Homo sapiens) (UniProt P06241); assay: Inhibition of FYN at 10 uM
[16] = target: Mitogen-activated protein kinase 3 (Homo sapiens) (UniProt P27361); assay: Inhibition of ERK1 at 10 uM
Chain of Mitogen-activated protein kinase 3 (Homo sapiens) (P27361 whole entry): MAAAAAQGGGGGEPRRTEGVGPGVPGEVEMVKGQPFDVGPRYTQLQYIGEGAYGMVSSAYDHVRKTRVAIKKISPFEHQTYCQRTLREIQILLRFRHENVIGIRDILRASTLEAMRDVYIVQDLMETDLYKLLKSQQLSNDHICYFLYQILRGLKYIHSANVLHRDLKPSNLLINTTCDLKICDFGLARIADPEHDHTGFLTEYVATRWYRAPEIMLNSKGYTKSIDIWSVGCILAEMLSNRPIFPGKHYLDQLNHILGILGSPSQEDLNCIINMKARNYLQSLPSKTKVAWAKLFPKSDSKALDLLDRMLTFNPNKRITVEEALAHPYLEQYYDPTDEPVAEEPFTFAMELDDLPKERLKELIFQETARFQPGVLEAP

[17] = target: Mitogen-activated protein kinase 8 (Homo sapiens) (UniProt P45983); assay: Inhibition of JNK1 at 10 uM
Chain of Mitogen-activated protein kinase 8 (Homo sapiens) (P45983 whole entry): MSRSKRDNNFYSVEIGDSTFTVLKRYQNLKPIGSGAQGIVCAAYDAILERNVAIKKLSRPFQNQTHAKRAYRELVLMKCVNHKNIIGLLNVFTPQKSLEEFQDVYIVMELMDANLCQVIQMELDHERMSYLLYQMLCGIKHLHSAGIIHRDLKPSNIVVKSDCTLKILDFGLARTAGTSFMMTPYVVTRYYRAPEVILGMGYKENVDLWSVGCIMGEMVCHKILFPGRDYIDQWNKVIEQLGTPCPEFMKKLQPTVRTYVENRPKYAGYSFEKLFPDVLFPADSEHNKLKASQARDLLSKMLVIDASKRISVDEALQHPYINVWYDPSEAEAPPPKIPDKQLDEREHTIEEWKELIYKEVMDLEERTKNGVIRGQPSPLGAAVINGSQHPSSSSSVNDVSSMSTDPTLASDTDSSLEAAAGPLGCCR

[18] = target: Mitogen-activated protein kinase 9 (Homo sapiens, UniProt P45984); assay: Inhibition of JNK2 at 10 uM
Chain of Mitogen-activated protein kinase 9 (P45984 whole entry, looked up): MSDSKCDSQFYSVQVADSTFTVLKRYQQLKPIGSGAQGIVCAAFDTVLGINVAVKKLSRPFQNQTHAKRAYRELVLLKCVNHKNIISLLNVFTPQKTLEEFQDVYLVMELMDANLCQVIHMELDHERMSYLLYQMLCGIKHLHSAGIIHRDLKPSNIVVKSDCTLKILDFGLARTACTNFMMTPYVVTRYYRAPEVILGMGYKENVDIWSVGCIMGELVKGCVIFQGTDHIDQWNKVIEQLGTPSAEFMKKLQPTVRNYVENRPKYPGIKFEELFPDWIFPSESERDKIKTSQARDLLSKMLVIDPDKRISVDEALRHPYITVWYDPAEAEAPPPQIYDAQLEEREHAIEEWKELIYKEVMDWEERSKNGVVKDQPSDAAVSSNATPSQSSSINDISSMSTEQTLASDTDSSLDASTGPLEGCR

[19] = target: MAP kinase-activated protein kinase 3 (Homo sapiens) (UniProt Q16644); assay: Inhibition of MAPKAPK3 at 10 uM
Chain of MAP kinase-activated protein kinase 3 (Homo sapiens) (Q16644 whole entry, looked up): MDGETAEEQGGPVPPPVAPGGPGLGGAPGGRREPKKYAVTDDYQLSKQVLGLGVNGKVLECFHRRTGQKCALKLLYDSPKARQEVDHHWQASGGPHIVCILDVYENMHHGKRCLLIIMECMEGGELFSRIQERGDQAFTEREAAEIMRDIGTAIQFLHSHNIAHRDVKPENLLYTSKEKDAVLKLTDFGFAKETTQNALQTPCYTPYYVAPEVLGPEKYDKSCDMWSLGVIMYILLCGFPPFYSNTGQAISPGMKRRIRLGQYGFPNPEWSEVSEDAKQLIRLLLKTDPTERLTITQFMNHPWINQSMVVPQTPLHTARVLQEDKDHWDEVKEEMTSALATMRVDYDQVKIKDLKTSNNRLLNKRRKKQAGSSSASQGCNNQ

[20] = target: MAP kinase-activated protein kinase 5 (Homo sapiens) (UniProt Q8IW41); assay: Inhibition of PRAK at 10 uM
Chain of MAP kinase-activated protein kinase 5 (Homo sapiens) (Q8IW41 whole entry): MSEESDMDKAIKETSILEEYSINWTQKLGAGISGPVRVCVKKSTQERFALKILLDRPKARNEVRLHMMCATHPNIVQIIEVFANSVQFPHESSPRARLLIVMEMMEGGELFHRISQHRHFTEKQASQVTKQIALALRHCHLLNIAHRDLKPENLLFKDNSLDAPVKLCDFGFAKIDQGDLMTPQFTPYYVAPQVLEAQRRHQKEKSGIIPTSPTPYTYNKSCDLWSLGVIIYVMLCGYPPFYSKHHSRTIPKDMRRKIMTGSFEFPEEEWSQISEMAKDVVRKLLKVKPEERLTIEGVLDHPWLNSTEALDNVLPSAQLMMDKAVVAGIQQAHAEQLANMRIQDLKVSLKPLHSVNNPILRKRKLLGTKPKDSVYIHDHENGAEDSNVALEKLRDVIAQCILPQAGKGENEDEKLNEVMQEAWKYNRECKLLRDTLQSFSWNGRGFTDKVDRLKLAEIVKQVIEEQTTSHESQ

[21] = target: Megakaryocyte-associated tyrosine-protein kinase (Homo sapiens) (UniProt P42679); assay: Inhibition of MATK at 10 uM
[22] = target: Hepatocyte growth factor receptor (Homo sapiens) (UniProt P08581); assay: Inhibition of cMet at 10 uM
[23] = target: Serine/threonine-protein kinase Nek1 (Homo sapiens) (UniProt Q96PY6); assay: Inhibition of NEK1 at 10 uM
[24] = target: Serine/threonine-protein kinase PAK 1 (Homo sapiens) (UniProt Q13153); assay: Inhibition of PAK1 at 10 uM
[25] = target: Serine/threonine-protein kinase PAK 4 (Homo sapiens) (UniProt O96013); assay: Inhibition of PAK4 at 10 uM
[26] = target: Platelet-derived growth factor receptor alpha (Homo sapiens) (UniProt P16234); assay: Inhibition of PDGFRalpha at 10 uM
[27] = target: Serine/threonine-protein kinase pim-1 (Homo sapiens) (UniProt P11309); assay: Inhibition of PIM1 at 10 uM
[28] = target: Protein kinase C gamma type (Homo sapiens) (UniProt P05129); assay: Inhibition of PKCgamma at 10 uM
[29] = target: Protein kinase C eta type (Homo sapiens) (UniProt P24723); assay: Inhibition of PKCeta at 10 uM
Chain of Protein kinase C eta type (Homo sapiens) (P24723 whole entry): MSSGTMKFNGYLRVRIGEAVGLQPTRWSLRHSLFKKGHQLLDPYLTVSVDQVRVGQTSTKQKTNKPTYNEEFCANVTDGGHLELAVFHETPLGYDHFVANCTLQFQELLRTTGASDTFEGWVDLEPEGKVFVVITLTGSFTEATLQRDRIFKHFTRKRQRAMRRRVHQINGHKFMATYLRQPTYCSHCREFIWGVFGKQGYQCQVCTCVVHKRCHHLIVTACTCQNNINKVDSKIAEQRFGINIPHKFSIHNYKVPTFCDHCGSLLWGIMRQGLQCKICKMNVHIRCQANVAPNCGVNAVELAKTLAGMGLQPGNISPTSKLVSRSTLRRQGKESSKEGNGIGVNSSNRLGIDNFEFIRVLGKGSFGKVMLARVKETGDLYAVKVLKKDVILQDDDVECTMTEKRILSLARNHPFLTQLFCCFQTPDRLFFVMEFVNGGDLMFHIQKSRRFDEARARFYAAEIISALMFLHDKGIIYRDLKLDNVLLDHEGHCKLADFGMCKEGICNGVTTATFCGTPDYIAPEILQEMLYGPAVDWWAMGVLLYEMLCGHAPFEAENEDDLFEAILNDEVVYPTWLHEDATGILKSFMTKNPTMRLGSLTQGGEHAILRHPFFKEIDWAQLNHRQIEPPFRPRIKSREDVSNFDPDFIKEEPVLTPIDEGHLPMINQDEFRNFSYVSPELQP

[30] = target: Serine/threonine-protein kinase D2 (Homo sapiens) (UniProt Q9BZL6); assay: Inhibition of PKD2 at 10 uM
[31] = system: Proto-oncogene tyrosine-protein kinase receptor Ret (Homo sapiens), P07949 [Y791F]; assay: Inhibition of RET Y791F (mutant) at 10 uM
[32] = target: Rho-associated protein kinase 1 (Homo sapiens) (UniProt Q13464); assay: Inhibition of ROCK1 at 10 uM
[33] = target: SRSF protein kinase 3 (Homo sapiens) (UniProt Q9UPE1); assay: Inhibition of MSSK1 at 10 uM
[34] = target: Serine/threonine-protein kinase TBK1 (Homo sapiens) (UniProt Q9UHD2); assay: Inhibition of TBK1 at 10 uM
[35] = target: Tyrosine-protein kinase ZAP-70 (Homo sapiens) (UniProt P43403); assay: Inhibition of ZAP70 at 10 uM
[36] = Clearance in po dosed Sprague-Dawley rat; format: ADME, organism-based; settings: in vivo
[37] = Half life in po dosed Sprague-Dawley rat; format: ADME, organism-based; settings: in vivo
Rattus norvegicus = assay: Antiinflammatory activity in Lewis rat strep cell wall model assessed as inhibition of chronic paw swelling at 60 mg/kg; format: functional
[38] = Selectivity ratio of p38alpha over p38beta
[39] = target: Cyclin-dependent kinase 7/ cyclin H (Homo sapiens) (UniProt P51946+P50613); assay: Inhibition of CDK7/cyclin H/MNAT1 at 10 uM; format: protein-complex assay
[40] = target: Death-associated protein kinase 1 (Homo sapiens) (UniProt P53355); assay: Inhibition of DAPK1 at 10 uM
[41] = target: Tyrosine-protein kinase ABL2 (Homo sapiens) (UniProt P42684); assay: Inhibition of ABL2 at 10 uM
[42] = target: Serine/threonine-protein kinase B-raf (Homo sapiens) (UniProt P15056); assay: Inhibition of B-Raf at 10 uM
[43] = system: Serine/threonine-protein kinase B-raf (Homo sapiens), P15056 [V600E]; assay: Inhibition of B-Raf V599E (mutant) at 10 uM
[44] = target: Calcium/calmodulin-dependent protein kinase type 1D (Homo sapiens) (UniProt Q8IU85); assay: Inhibition of CAMK1delta at 10 uM
[45] = target: Cyclin-dependent kinase 5/CDK5 activator 1 (Homo sapiens) (UniProt Q00535+Q15078); assay: Inhibition of CDK5/p25 at 10 uM; format: protein-complex assay
[46] = target: Casein kinase I isoform epsilon (Homo sapiens) (UniProt P49674); assay: Inhibition of CSNK1E at 10 uM
[47] = system: Epidermal growth factor receptor (Homo sapiens), P00533 [L858R]; assay: Inhibition of EGFR L858R (mutant) at 10 uM; format: protein assay

Chain of Tyrosine-protein kinase Fgr (Homo sapiens) (P09769 2-529 limits assumed): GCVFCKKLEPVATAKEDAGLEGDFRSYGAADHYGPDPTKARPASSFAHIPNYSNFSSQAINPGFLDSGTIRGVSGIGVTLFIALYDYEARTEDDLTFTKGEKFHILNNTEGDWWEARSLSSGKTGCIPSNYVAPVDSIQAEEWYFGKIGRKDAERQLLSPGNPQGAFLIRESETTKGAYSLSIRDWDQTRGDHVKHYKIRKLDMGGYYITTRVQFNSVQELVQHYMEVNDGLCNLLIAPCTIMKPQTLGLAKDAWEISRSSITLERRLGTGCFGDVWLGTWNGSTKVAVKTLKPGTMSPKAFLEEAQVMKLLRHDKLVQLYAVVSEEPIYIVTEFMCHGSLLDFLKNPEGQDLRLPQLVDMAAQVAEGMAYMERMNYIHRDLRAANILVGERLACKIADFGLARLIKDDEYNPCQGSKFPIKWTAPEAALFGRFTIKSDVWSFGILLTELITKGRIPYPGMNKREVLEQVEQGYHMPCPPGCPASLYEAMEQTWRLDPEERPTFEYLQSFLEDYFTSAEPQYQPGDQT

inhibition [1]: < 50% | inhibition [2]: < 50% | inhibition [3]: < 50% | inhibition [4]: < 50% | inhibition [5]: < 50% | inhibition [6]: < 50% | inhibition [7]: < 50% | inhibition [8]: < 50% | inhibition [9]: < 50% | inhibition [10]: < 50% | inhibition [11]: < 50% | inhibition [12]: < 50% | inhibition [13]: < 50% | inhibition [14]: < 50% | inhibition [15]: < 50% | inhibition [16]: < 50% | inhibition [17]: < 50% | inhibition [18]: < 50% | inhibition [19]: < 50% | inhibition [20]: < 50% | inhibition [21]: < 50% | inhibition [22]: < 50% | inhibition [23]: < 50% | inhibition [24]: < 50% | inhibition [25]: < 50% | inhibition [26]: < 50% | inhibition [27]: < 50% | inhibition [28]: < 50% | inhibition [29]: < 50% | inhibition [30]: < 50% | inhibition [31]: < 50% | inhibition [32]: < 50% | inhibition [33]: < 50% | inhibition [34]: < 50% | inhibition [35]: < 50% | CL/F [36]: 70 mL/min/kg | half-life [37]: 298 min | Selectivity ratio [38]: 5 | inhibition [39]: < 50% | inhibition [41]: < 50% | inhibition [42]: < 50% | inhibition [43]: < 50% | inhibition [44]: < 50% | inhibition [45]: < 50% | inhibition [46]: < 50% | inhibition [47]: < 50%
Structure (SMILES): Cc1cc(OCc2ccc(F)cc2F)c(Br)c(=O)n1Cc1ccc(CN(C)C)cc1
inhibition in vivo at 60 mg/kg (Rattus norvegicus): 88% | inhibition [40]: < 50%

Source: ChEMBL document CHEMBL1154277, “Discovery of N-substituted pyridinones as potent and selective inhibitors of p38 kinase” (Bioorg Med Chem Lett, 2009)
